{
  "source": "patent US7125997B2",
  "about": "“Differential tumor cytotoxicity compounds and compositions” (IRM LLC, priority 2002, dated 2006)",
  "test_system": "Human SW620 colon tumor cells",
  "assay": "alamarBlue cell viability (cytotoxicity) assay, SW620",
  "assay_type": "cell-based",
  "conditions": "SW-620, 48 h, SW620 cell line, two days incubation, alamarBlue fluorescence",
  "protocol": "Human SW620 colon tumor cells are cultivated using 10% FCS/DMEM (Invitrogen) medium. The cells are plated into 384 well plates at a density of 8000 cells per well in a volume of 50 μL. The cells are placed in a 37° C. incubator and allowed to adhere overnight. Test compounds are added to the cells in a volume of 500 nL (final DMSO concentration in assay is 1%). Serial dilutions of the test compound are added (the top concentration of compound is 10 micromolar (final assay concentration) followed by 11 two fold dilutions. The cells are incubated for a further two days. A solution (50 μL) comprised of 20% alamarBlue™ (Biosource International, Inc.) and 80% assay medium is added to each well and the plates are incubated at 37° C. for a further 4 hours. The plates are read by fluorescence (530 nm excitation, 580 nm emission) on an Acquest reader (LJL Biosystems). The IC50 is defined as the concentration of a test compound at the end of the incubation period, which leads to 50% of cell viability per well compared with the control (concentration at semi-maximum inhibition of cell growth).",
  "note": "pIC50: −log10 of the molar value.",
  "data": [
    {"smiles": "O=C(Nc1ccc(N2CCOCC2)cc1)c1ccc(Nc2ccc(OC(F)(F)F)cc2)cc1", "note": "[Example 1, N-(4-Morpholin-4-yl-phenyl)-4-(4-trifluoromethoxy-phenylamino)-benzamide]", "values": [
      {"measurement": "pIC50", "value": 7.59}
    ]}
  ]
}
